Key:
NCI-H2110 = assay: Cytotoxicity, NSCLC cell line NCI-H2110; type: cell-based; settings: Homo sapiens
Procedure: (§1) Compounds were exposed at various concentrations for 72 hours, followed by a wash step. Fresh medium was added for growth. The cell was stained to determine the cell survival rate and compared with controls treated with medium only.
(§2) In particular, exponentially grown cells were inoculated in 96-well plates at a density of 2×10^3 cells/100 μl/well and incubated for 24 hours at 37° C. and under the conditions of 5% CO2, 95% air and 100% relative humidity before addition of 99 μl of culture solution. The compounds were dissolved in 100% DMSO at 200 times of the desired final test concentration. When the drug was added, an aliquot of 1 μl of the compound at the specified concentration was added to microwells already containing 199 μl of medium to obtain the reported final drug concentration. After adding the drug, plates were incubated for an additional 72 hours at 37° C., 5% CO2, 95% air and 100% relative humidity. The cell assay plate was left to balance for 30 minutes at room temperature and 100 μL of medium was removed from per well. 100 μl CTG reagent (CelltiterGlo kit) was added into each well. The plate was placed on a fast shaker and shaked for 2 min, and kept in dark at room temperature for 30 min. The chemiluminescence signal value was read by Envision instrument. […]

KP-3 = assay: Cytotoxicity, pancreatic cancer PA cells KP-3; type: cell-based; settings: Homo sapiens
Procedure: as §1, §2

Panc 10.05 = assay: Cytotoxicity, pancreatic cancer PA cells Panc 10.05; type: cell-based; settings: Homo sapiens, Panc1005
Procedure: as §1, §2

PANC-1 = assay: Cytotoxicity, pancreatic cancer PA cells PANC-1; type: cell-based; settings: Homo sapiens
Procedure: as §1, §2

[1] = test system: HuPrime model GA6201 human gastric cancer subcutaneous transplantation PDX tumor; assay: GA6201 human gastric cancer subcutaneous PDX model; type: in vivo, BALB/c nude mice
Procedure: Then the dose was changed to 10 mg/kg by intraperitoneal injection administration daily for 4 days (QD×4, Day14-Day17). The dose and mode of administration were then changed to 20 mg/kg via tail vein injection for one day (QD×1, Day18). After drug withdrawal for 10 days, the dose was changed again, and 50 mg/kg was administered via tail vein injection once a week for two weeks QW×2 (Day28, Day35).
The tumor volumes of mice from different groups were measured at different days and the average values were obtained.

[2] = test system: human lung cancer NCI-H460 subcutaneous xenograft; assay: Human lung cancer NCI-H460 subcutaneous xenograft model, compound A; type: in vivo, BALB/c nude mice
Procedure: BALB/c nude mice were subcutaneously inoculated with human lung cancer NCI-H460 cells to establish human lung cancer subcutaneous transplantation tumor model. […] The test drug compound A 40 mg/kg group was administered by tail vein injection once every three weeks for 2 times, and observed for one week after the second administration. The test drug compound A 20 mg/kg group was administered by intraperitoneal injection once a day for 5 days continuously, and observed for 24 days. […] The administration dosage of compound A was determined according to the MTD test.
The tumor volumes of mice from each group were measured at different days and the average values were taken.

O=[N+]([O-])c1ccc(C(OP(=O)(N2CC2)N2CC2)C(F)(F)F)c2ccccc12 (racemic) [Compound A]
IC50 (NCI-H2110): 0.382 µM | IC50 (KP-3): 26.2 µM | IC50 (Panc 10.05): 27.7 µM | IC50 (PANC-1): 29.3 µM | tumor volume ([1]; Group 06, 5-50 mg/kg regimen, day 3): 121.79 mm^3 | tumor volume ([1]; Group 06, 5-50 mg/kg regimen, day 10): 153.46 mm^3 | tumor volume ([1]; Group 06, 5-50 mg/kg regimen, day 14): 191.17 mm^3 | tumor volume ([1]; Group 06, 5-50 mg/kg regimen, day 28): 280.86 mm^3 | tumor volume ([1]; Group 06, 5-50 mg/kg regimen, day 42): 300.46 mm^3 | tumor volume ([1]; Group 06, 5 then 10 mg/kg i.p., 20 and 50 mg/kg i.v. (Table 10), day 0): 94.24 mm^3 | relative tumor inhibition rate TGI (%) ([2]; 40 mg/kg, Q3W×2, IV, Day31): 66.87% | tumor volume ([2]; Test Group 7, 40 mg/kg IV, day 10): 184.06 mm^3 | tumor volume ([2]; Test Group 7, 40 mg/kg IV, day 14): 153.75 mm^3 | tumor volume ([2]; Test Group 7, 40 mg/kg IV, day 17): 159.72 mm^3 | tumor volume ([2]; Test Group 7, 40 mg/kg IV, day 21): 218.13 mm^3 | tumor volume ([2]; Test Group 7, 40 mg/kg IV, day 24): 291.07 mm^3 | tumor volume ([2]; Test Group 7, 40 mg/kg IV, day 28): 520.17 mm^3 | tumor volume ([2]; Test Group 7, 40 mg/kg IV, day 31): 580.70 mm^3 | tumor volume ([2]; Test Group 7, 40 mg/kg IV, day 35): 447.32 mm^3 | tumor volume ([2]; Test Group 7, 40 mg/kg, Q3W×2, IV, day 7): 143.84 mm^3 | tumor volume ([2]; Test Group 8, 20 mg/kg IP, day 10): 173.09 mm^3 | tumor volume ([2]; Test Group 8, 20 mg/kg IP, day 14): 152.99 mm^3 | tumor volume ([2]; Test Group 8, 20 mg/kg IP, day 17): 130.06 mm^3 | tumor volume ([2]; Test Group 8, 20 mg/kg IP, day 21): 129.66 mm^3 | tumor volume ([2]; Test Group 8, 20 mg/kg IP, day 24): 164.63 mm^3 | tumor volume ([2]; Test Group 8, 20 mg/kg IP, day 28): 272.20 mm^3 | tumor volume ([2]; Test Group 8, 20 mg/kg IP, day 31): 447.50 mm^3 | tumor volume ([2]; Test Group 8, 20 mg/kg IP, day 35): 651.58 mm^3 | tumor volume ([2]; Test Group 8, 20 mg/kg, QD×5×1 week, IP, day 7): 144.63 mm^3

From patent US20230339991A1, “HYPOXIA-ACTIVATED DNA ALKYLATING AGENT AND MEDICAL USE THEREOF” (ASCENTAWITS PHARMACEUTICALS, LTD., priority 2020, published 2023)
